Assay results from ChEMBL document CHEMBL1201862, “PubChem BioAssay data set” (2004).
The source made the active and inactive calls.

How the values were obtained:
[1] = HeLa cell cytotoxicity, dose response, cytotoxicity control, 24 h, plate reader, powder samples, set 3 (AID 651864); type: functional, cell-based
[2] = Luminescence Cell-Based Dose Response HTS to Identify Activators of Luciferase Translation or Activity in H4 […] Cells. [Related pubchem assays: 1829 (Project Summary), 1814 (Primary HTS)]; type: functional
[3] = system: H4; assay: Luminescence Cell-Based Dose Response HTS to Identify Activators of 5'UTR Stem-Loop Driven Prion Protein mRNA Translation in H4 Neuroglioblastoma Cells. [Related pubchem assays: 1829 (Project Summary), 1814 (Primary HTS)]; type: functional; conditions: Homo sapiens
[4] = system: Vero; assay: host cell cytotoxicity of antiviral hits, dose response, cytotoxicity control for West Nile virus antiviral project, secondary assay (AID 1650); type: functional; conditions: Chlorocebus sabaeus
[5] = Luminescence Cell-Based Dose Retest to Confirm Inhibitors of Cancer Stem Cells. [Related pubchem assays (depositor defined):AID2717, AID2721]; type: functional; conditions: Homo sapiens
[6] = target: T1, Replicative DNA helicase DnaB (Mycobacterium tuberculosis, UniProt P9WMR3); assay: DnaB intein splicing inhibitors, dose response, biochemical, cell-free fluorescence (AID 449749); type: functional
T1 sequence (P9WMR3 whole entry): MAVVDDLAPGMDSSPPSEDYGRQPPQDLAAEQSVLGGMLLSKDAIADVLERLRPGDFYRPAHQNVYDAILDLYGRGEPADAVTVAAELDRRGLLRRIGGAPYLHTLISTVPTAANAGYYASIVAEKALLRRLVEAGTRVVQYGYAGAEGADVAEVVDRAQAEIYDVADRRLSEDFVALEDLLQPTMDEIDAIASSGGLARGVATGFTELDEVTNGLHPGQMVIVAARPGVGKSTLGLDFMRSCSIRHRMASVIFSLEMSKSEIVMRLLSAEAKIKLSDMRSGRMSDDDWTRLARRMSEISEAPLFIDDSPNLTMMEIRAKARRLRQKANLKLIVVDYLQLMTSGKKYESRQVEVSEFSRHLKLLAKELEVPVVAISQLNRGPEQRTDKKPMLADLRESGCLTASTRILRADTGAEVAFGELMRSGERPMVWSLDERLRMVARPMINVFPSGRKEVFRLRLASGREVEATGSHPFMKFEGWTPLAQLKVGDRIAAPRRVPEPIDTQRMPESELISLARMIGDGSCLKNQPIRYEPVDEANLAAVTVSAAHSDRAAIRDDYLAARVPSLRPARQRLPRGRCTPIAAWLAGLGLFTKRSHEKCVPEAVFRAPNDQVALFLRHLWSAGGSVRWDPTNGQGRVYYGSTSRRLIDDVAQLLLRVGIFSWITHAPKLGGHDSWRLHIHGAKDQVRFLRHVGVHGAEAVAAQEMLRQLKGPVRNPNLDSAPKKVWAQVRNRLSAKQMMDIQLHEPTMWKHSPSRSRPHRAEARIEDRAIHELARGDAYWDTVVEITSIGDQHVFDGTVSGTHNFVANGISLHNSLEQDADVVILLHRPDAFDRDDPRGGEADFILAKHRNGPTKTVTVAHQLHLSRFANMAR

[7] = system: Vero; assay: cells; type: functional, cell-based; conditions: Chlorocebus sabaeus
[8] = target: T2, Protein RecA (Mycobacterium tuberculosis, UniProt P9WHJ3); assay: Fluorescence Cell-Free Homogeneous Dose Retest to Identify Inhibitors of RecA-Intein Splicing Activity. [Related pubchem assays (depositor defined):AID2097, AID2223, AID489010, AID492950]; type: functional
T2 sequence (P9WHJ3 whole entry): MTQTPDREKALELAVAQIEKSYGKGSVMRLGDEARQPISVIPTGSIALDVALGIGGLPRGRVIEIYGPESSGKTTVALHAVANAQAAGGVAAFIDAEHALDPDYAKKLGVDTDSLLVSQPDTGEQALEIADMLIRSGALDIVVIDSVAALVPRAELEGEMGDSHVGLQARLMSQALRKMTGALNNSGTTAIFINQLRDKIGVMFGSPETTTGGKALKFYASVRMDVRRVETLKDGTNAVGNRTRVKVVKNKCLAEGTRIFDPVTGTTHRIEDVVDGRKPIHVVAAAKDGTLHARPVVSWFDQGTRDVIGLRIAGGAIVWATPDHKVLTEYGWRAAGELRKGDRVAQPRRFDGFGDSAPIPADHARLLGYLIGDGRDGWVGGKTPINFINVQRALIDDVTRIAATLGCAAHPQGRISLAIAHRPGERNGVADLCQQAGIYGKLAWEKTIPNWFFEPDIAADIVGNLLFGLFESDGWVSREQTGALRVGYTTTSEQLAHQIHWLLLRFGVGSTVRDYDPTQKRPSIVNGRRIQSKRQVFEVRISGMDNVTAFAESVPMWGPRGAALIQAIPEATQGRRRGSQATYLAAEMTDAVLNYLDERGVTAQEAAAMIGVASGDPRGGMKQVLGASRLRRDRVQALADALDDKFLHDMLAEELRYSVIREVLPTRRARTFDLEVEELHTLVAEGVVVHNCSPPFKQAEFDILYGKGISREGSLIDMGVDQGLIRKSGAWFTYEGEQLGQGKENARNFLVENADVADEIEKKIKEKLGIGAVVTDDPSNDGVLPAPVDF

[9] = system: INS1; assay: beta cell apoptosis inhibitors, cytokine rescue, dose response, luminescence, retest (AID 449756); type: functional, cell-based; conditions: Rattus norvegicus;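 further: cell death triggered by IL-1 beta plus TNF-alpha plus IFN-gamma mixture; protective hits raise ATP signal compared with cytokine alone wells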
[10] = system: Vero; assay: cells; type: functional; conditions: Chlorocebus sabaeus
[11] = A Cell-Based Counter Screen testing Compounds that Inhibit VEEV TC-83, in strain KU V3526.; type: functional
[12] = A Cell-Based Confirmatory Screen for Compounds that Inhibit VEEV, TC-83 (2).; type: functional
[13] = inhibitors of non-replicating M. tuberculosis, dose response, luciferase, dry powder (AID 651619); type: functional; conditions: Mycobacterium tuberculosis
[14] = inhibitors of non-replicating M. tuberculosis, dose response, luciferase, dry powder (AID 651620); type: functional; conditions: Mycobacterium tuberculosis
[15] = growth inhibition of replicating M. tuberculosis, dose response, counter-screen, dry powder, IC90 (AID 651617); type: functional; conditions: Mycobacterium tuberculosis
[16] = A Cell-Based Confirmatory Screen for Compounds that Inhibit VEEV, TC-83 (5).; type: functional
[17] = A Cell-Based Confirmatory Screen for Compounds that Inhibit VEEV TC-83 (4).; type: functional
[18] = target: T3, Methionyl-tRNA synthetase, putative (Trypanosoma brucei brucei, UniProt Q38C91); type: functional, Trypanosoma brucei brucei strain 927/4 GUTat10.1
[19] = Counterscreen for inhibitors of Trypanosoma brucei methionyl tRNA synthetase (MetRS): Luminescence-based cell-based high throughput dose response assay to identify compounds that are cytotoxic to Jurkat human T lymphocyte cells.; type: functional
[20] = target: T3, Methionyl-tRNA synthetase, putative; type: functional, Trypanosoma brucei brucei strain 927/4 GUTat10.1; remark: listed apart in the source
[21] = Late stage counterscreen for inhibitors of Trypanosoma brucei methionyl tRNA synthetase (MetRS): Luminescence-based cell-based high throughput dose response assay to identify compounds that are cytotoxic to Jurkat human T lymphocyte cells.; type: functional

T3 sequence (Q38C91 whole entry): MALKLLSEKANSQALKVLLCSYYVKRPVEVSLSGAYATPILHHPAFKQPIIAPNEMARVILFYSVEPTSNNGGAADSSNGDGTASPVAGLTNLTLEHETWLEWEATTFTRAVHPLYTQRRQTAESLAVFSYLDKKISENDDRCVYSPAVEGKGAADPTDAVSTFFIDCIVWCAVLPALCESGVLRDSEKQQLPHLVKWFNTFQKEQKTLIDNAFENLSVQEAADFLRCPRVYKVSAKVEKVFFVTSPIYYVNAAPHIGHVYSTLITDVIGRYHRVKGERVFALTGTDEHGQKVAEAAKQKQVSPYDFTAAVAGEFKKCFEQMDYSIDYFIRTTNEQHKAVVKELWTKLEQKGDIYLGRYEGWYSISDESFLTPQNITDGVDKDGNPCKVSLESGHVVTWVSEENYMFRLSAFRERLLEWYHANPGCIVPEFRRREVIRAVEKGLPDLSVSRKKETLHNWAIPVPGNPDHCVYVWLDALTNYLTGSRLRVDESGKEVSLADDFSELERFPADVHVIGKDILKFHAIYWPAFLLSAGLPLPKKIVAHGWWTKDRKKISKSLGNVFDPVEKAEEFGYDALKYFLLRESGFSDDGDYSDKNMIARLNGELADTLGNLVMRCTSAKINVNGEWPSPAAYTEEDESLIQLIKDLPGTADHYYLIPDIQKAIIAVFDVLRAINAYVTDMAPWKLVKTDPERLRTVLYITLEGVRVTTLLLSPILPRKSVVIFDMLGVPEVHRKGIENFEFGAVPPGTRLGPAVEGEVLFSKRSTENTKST

CCn1nccc1/N=C/c1ccc(N2CCCC2)cc1
inactive: AC50 [1] > 160 µM

Clc1ccc2nnnc(-c3ccccc3)c2c1
active: EC50 [2] 2.12 µM | CC50 [4] 12.3 µM | AC50 [5] 3.08 µM | AC50 [6] 24.8 µM | IC50 [7] 9.71 µM | EC50 [8] 3.78 µM | AC50 [9] 7.81 µM | CC50 [10] > 25 µM | IC50 [11] 3.45 µM | IC50 [12] 6.12 µM
> 120 µM (not active): EC50 [3]

COc1ccc(-c2nnc(SCc3ccccn3)o2)cc1
active: IC90 [13] 4 µM | IC90 [14] 4 µM | IC90 [15] 62 µM

CCN1CCN(Cc2nc3ccc([N+](=O)[O-])cc3c(=O)n2-c2ccc(F)cc2)CC1
active: IC50 [16] 0.99 µM | IC50 [17] 0.6 µM

CC(=O)c1c[nH]c(C(=O)NCc2cccc(C(F)(F)F)c2)c1
active: IC50 [18] 2.07 µM | IC50 [20] 1.16 µM
inactive: IC50 [19] 83.3 µM | IC50 [21] > 83.3 µM
